Data as given in ChEMBL document CHEMBL3603765, “Targeting Drug Resistance in EGFR with Covalent Inhibitors: A Structure-Based Design Approach” (J Med Chem, 2015).
pIC50, pKi: −log10 of the molar value. Converted amounts (≈) assume the structure as drawn. The source made the active and inactive calls. The rule behind the calls is not given here.

Legend:
[1] = Growth inhibition of human HCC827 cells with exon 19 deletion and delE746-A750 incubated for 96 hrs by cell-titer Glo reagent based assay; type: functional; conditions: HCC827, 96 h
[2] = target: T1, Epidermal growth factor receptor (Homo sapiens, UniProt P00533, L858R)
NCI-H1975 [3] = test: Growth inhibition of human NCI-H1975 cells expressing EGFR L858R/T790M mutant at 30 um incubated for 96 hrs by cell-titer Glo reagent based assay; type: functional
[4] = target: Epidermal growth factor receptor (Homo sapiens, UniProt P00533); test: Inhibition of wild type EGFR (unknown origin) expressed in Sf9 cells pre-incubated for 30 mins before substrate and ATP addition by homogeneous time-resolved FRET assay
[5] = target: T2, Epidermal growth factor receptor (Homo sapiens, UniProt P00533, L858R/T790M)
NCI-H661 = test: Growth inhibition of human NCI-H661 cells incubated for 96 hrs by cell-titer Glo reagent based assay; type: functional; conditions: NCI-H661, 96 h
[6] = tested on: Epidermal growth factor receptor (Homo sapiens), P00533 [T790M]; test: Binding affinity to EGFR T790M mutant (unknown origin) expressed in Sf9 cells by ESI-MS method
NCI-H1975 [7] = test: Growth inhibition of human NCI-H1975 cells expressing EGFR L858R/T790M mutant incubated for 96 hrs by cell-titer Glo reagent based assay; type: functional; conditions: NCI-H1975, 96 h
A-431 = test: Growth inhibition of human A431 cells incubated for 96 hrs by cell-titer Glo reagent based assay; type: functional; conditions: A-431, 96 h
[8] = tested on: Epidermal growth factor receptor (Homo sapiens), P00533 [T790M]; test: Binding affinity to EGFR T790M mutant (unknown origin) expressed in Sf9 cells assessed as covalent modification at Cys797 residue nano-LC-MS/MS method
[9] = target: T1, Epidermal growth factor receptor; test: Inhibition of EGFR L858R mutant (unknown origin) expressed in Sf9 cells by enzyme kinetics assay
[10] = tested on: Epidermal growth factor receptor (Homo sapiens), P00533 [L858R]; test: Inhibition of EGFR L858R mutant (unknown origin) expressed in Sf9 cells assessed as enzyme inactivation constant by enzyme kinetics assay
[11] = tested on: Epidermal growth factor receptor (Homo sapiens), P00533 [L858R,T790M]; test: Inhibition of EGFR L858R/T790M mutant (unknown origin) expressed in Sf9 cells assessed as enzyme inactivation constant by enzyme kinetics assay
[12] = Permeability of the compound after 16 hrs assessed as compound flux by PAMPA method; type: physicochemical
[13] = target: T2, Epidermal growth factor receptor; test: Inhibition of EGFR L858R/T790M mutant (unknown origin) expressed in Sf9 cells by enzyme kinetics assay
[14] = target: Proto-oncogene tyrosine-protein kinase Src (Homo sapiens, UniProt P12931, S348C/T341M); test: Inhibition of cSrc T338M/S345C mutant (unknown origin) pre-incubated for 30 mins before substrate and ATP addition by HTRF assay
[15] = Kinetic solubility in 50 mM Hepes buffer at pH 7.4; type: physicochemical; conditions: read-out: Kinetic_solubility
[16] = Efflux ratio in human Caco2 cells incubated for 2 hrs; type: ADME, cell-based; conditions: Caco-2
[17] = target: Proto-oncogene tyrosine-protein kinase Src (Homo sapiens, UniProt P12931, T341M); test: Inhibition of cSrc T338M mutant (unknown origin) pre-incubated for 30 mins before substrate and ATP addition by HTRF assay
[18] = target: Proto-oncogene tyrosine-protein kinase Src (Homo sapiens, UniProt P12931); test: Inhibition of wild type cSrc (251 to 533 residues) (unknown origin) pre-incubated for 30 mins before substrate and ATP addition by HTRF assay

Row | Structure (SMILES) | GI50 [1] [µM] | pIC50 [2] | pIC50 [4] | pIC50 [5] | also measured
1 | C=CC(=O)Nc1cccc(Oc2nc(Nc3n[nH]c4ccccc34)cc(N3CCN(C(C)=O)CC3)n2)c1 | 25 | 6.22 | 5.44 | 6.70 | growth inhibition (GI) (NCI-H1975 [3]): inactive; GI50 (NCI-H661): > 30 µM
2 | C=CC(=O)Nc1cc(Nc2cc[nH]n2)nc(-c2ccccc2)n1 | – | 6.10 | 6.05 | 6.52 | Activity [6]: Active
3 | CCC(=O)Nc1ccccc1-c1nc(Nc2cc[nH]n2)c2ccccc2n1 | – | < 5.00 | < 5.00 | < 5.00 | –
4 | CCC(=O)Nc1ccc(Oc2nc(Nc3cc(C)[nH]n3)cc(N3CCN(C)CC3)n2)cc1 | – | 5.72 | < 5.00 | 6.15 | –
5 | Cc1cc(Nc2cc(N3CCN(C)CC3)nc(Oc3cccc(N)c3)n2)n[nH]1 | > 30 | < 5.00 | < 5.00 | 5.31 | GI50 (NCI-H1975 [7]): > 30 µM; GI50 (A-431): 20 µM
6 | Cc1cc(Nc2cc(N3CCN(C)CC3)nc(Oc3ccc(N)cc3)n2)n[nH]1 | – | 5.68 | < 5.00 | 5.85 | –
7 | CCC(=O)Nc1cccc(Oc2nccc(Nc3cc(C)[nH]n3)n2)c1 | – | < 5.00 | < 5.00 | < 5.00 | –
8 | C=CC(=O)Nc1cccc(Oc2nc(Nc3n[nH]c4ccccc34)cc(N3CCN(C)CC3)n2)c1 | 2.5 | 6.30 | 5.77 | 7.15 | Activity [8]: Active; pKi [9]: 6.08; GI50 (NCI-H1975 [7]): 9.8 µM; Kinact [10]: 0.055 min⁻¹; Kinact [11]: 0.137 min⁻¹; permeability [12]: 47%; pKi [13]: 9.49; Activity [6]: Active; pIC50 [14]: 7.77; GI50 (NCI-H661): 8.6 µM; solubility kinetic [15]: 277 µM (≈ 130 µg/mL); efflux ratio at 2 h [16]: 35
9 | Cc1cc(Nc2cc(N3CCN(C)CC3)nc(Oc3ccc([N+](=O)[O-])cc3)n2)n[nH]1 | – | 5.74 | < 5.00 | 6.05 | –
10 | CCC(=O)Nc1cc(Nc2cc[nH]n2)nc(-c2ccccc2)n1 | – | 5.47 | < 5.00 | < 5.00 | –
11 | C=CC(=O)Nc1cccc(Nc2nc(Nc3ccc(N4CCN(C(C)=O)CC4)cc3OC)ncc2C(F)(F)F)c1 [ROCILETINIB] | 0.03 | – | – | – | GI50 (NCI-H1975 [7]): 0.03 µM; GI50 (NCI-H661): 1.7 µM
12 | CCC(=O)Nc1cccc(Oc2nc(Nc3cc(C)[nH]n3)cc(N3CCN(C)CC3)n2)c1 | > 30 | 5.72 | < 5.00 | < 5.00 | pIC50 [17]: 6.60; GI50 (NCI-H1975 [7]): > 30 µM; GI50 (A-431): 8.4 µM; pIC50 [14]: 6.46
13 | CCC(=O)Nc1ccc(-c2nc(Nc3cc[nH]n3)c3ccccc3n2)cc1 | – | < 5.00 | < 5.00 | < 5.00 | –
14 | C=CC(=O)Nc1cccc(-c2nc(Nc3n[nH]c4ccccc34)cc(N3CCN(C)CC3)n2)c1 | 16 | 5.30 | < 5.00 | 5.31 | GI50 (NCI-H1975 [7]): 11 µM; GI50 (NCI-H661): 12 µM
15 | CCC(=O)Nc1cccc(Oc2nc(Nc3n[nH]c4ccccc34)cc(N3CCN(C)CC3)n2)c1 | > 30 | < 5.00 | < 5.00 | 5.07 | GI50 (NCI-H1975 [7]): 30 µM; pIC50 [14]: 6.59; GI50 (NCI-H661): 22 µM
16 | C=CC(=O)Nc1cccc(Oc2nccc(Nc3cc(C)[nH]n3)n2)c1 | – | 5.74 | < 5.00 | 6.05 | –

Row | Structure (SMILES) | GI50 [1] [µM] | pIC50 [2] | pIC50 [4] | pIC50 [5] | also measured
17 | C=CC(=O)Nc1cccc(-c2nc(Nc3cc[nH]n3)c3ccccc3n2)c1 | – | 6.30 | 5.96 | 7.00 | –
18 | Cc1cc(Nc2cc(N3CCN(C)CC3)nc(Oc3ccc(NC(=O)/C=C/C(F)(F)F)cc3)n2)n[nH]1 | – | 5.68 | 5.70 | 5.82 | –
19 | C=CC(=O)Nc1ccc(-c2nc(Nc3cc[nH]n3)c3ccccc3n2)cc1 | – | < 5.00 | < 5.00 | < 5.00 | –
20 | C=CC(=O)Nc1cccc(Oc2nc(Nc3cc[nH]n3)cc(N3CCN(C)CC3)n2)c1 | – | 5.70 | < 5.00 | 5.72 | –
21 | C=CC(=O)Nc1cccc(-c2nccc(Nc3cc(C)[nH]n3)n2)c1 | – | 5.55 | < 5.00 | 5.60 | –
22 | C=CC(=O)Nc1ccc(Oc2nc(Nc3cc(C)[nH]n3)cc(N3CCN(C)CC3)n2)cc1 | – | 5.74 | 5.51 | 5.62 | –
23 | Cc1cc(Nc2cc(N3CCN(C)CC3)nc(Oc3ccccc3[N+](=O)[O-])n2)n[nH]1 | – | 5.72 | < 5.00 | 5.80 | –
24 | Cc1cc(Nc2cc(N3CCN(C)CC3)nc(Oc3cccc([N+](=O)[O-])c3)n2)n[nH]1 | 8.9 | 5.64 | 5.41 | 6.22 | GI50 (NCI-H1975 [7]): 6.5 µM; GI50 (A-431): 3.5 µM
25 | C=CC(=O)Nc1ccccc1-c1nc(Nc2cc[nH]n2)c2ccccc2n1 | – | 5.57 | < 5.00 | 5.96 | –
26 | CN(C)C/C=C/C(=O)Nc1cccc(Oc2nc(Nc3n[nH]c4ccccc34)cc(N3CCN(C)CC3)n2)c1 | > 30 | 5.44 | 5.17 | 6.15 | growth inhibition (GI) (NCI-H1975 [3]): inactive; GI50 (NCI-H661): > 30 µM
27 | CCC(=O)Nc1cccc(-c2nc(Nc3cc[nH]n3)c3ccccc3n2)c1 | – | 5.72 | 5.43 | 6.40 | –
28 | CCC(=O)Nc1ccc2c(Nc3cc[nH]n3)nc(-c3ccccc3)nc2c1 | – | 5.68 | < 5.00 | 5.66 | pIC50 [17]: 7.22; pIC50 [18]: 6.47; pIC50 [14]: 7.32
29 | CCC(=O)Nc1cccc(Oc2nc(Nc3cc[nH]n3)cc(N3CCN(C)CC3)n2)c1 | – | < 5.00 | < 5.00 | < 5.00 | –
30 | CCC(=O)Nc1ccccc1Oc1nc(Nc2cc(C)[nH]n2)cc(N2CCN(C)CC2)n1 | – | < 5.00 | < 5.00 | < 5.00 | –
31 | C=CC(=O)Nc1ccccc1Oc1nc(Nc2cc(C)[nH]n2)cc(N2CCN(C)CC2)n1 | – | 6.22 | 6.05 | 5.68 | –
32 | C=CC(=O)Nc1cccc(Oc2nc(Nc3n[nH]c4ccc(Br)cc34)cc(N3CCN(C)CC3)n2)c1 | 8.6 | 6.40 | 5.54 | 6.52 | GI50 (NCI-H1975 [7]): 18 µM; GI50 (NCI-H661): 11 µM
